According to patent US11191754B2, “Inhibitors of nucleotidyl transferases and uses in herpes and hepatitis viral infections therefor” (Saint Louis University, priority 2015, dated 2021):
Read-outs that look alike come from different tables or passages of the source.

Tests used:
HBV [1] = assay: Chou-Talalay combination analysis with Lamivudine against HBV replication; assay type: cell-based, hepatitis B virus; conditions: together with Lamivudine; CI <1.0 indicates synergy
From the text: Current nucleos(t)ide analog therapy for HBV has converted hepatitis type B from an implacably progressing illness to a controllable disease. However, patients are only very rarely cured, in part due to the incomplete inhibition of HBV replication. The inventors hypothesized that the novel RNaseH inhibitors would work synergistically with the existing nucleos(t)ide analogs because the two classes of drugs target physically distinct active sites on the viral polymerase protein. […] RNAseH inhibitors from two different chemical classes were employed, compound #1 [2-hydroxyisoquinoline-1,3(2H,4H)-dione], an HID, and #46 (β-thujaplicinol), an α-hydroxytropolone, were tested. Chou-Talaly analysis yields a combination index (CI). CI values <1.0 indicate synergy, CIs of approximately 1.0 indicate additive interactions, and CI values >1.0 indicate antagonism. CI values are calculated at various efficacy levels (EC50, EC75, EC90, and EC95), and a weighted CI value favoring higher efficacy levels is also generated. FIGS. 4A & 4B show the results of four experiments employing compound #1 and three with compound #46. […] Therefore, RNAseH inhibitors act strongly synergistically with an approved nucleos(t)ide analog drug against HBV.

HBV RNAseH = assay: Biochemical RNAseH assay with patient-derived variant HBV RNAseH enzymes; parameters: species or system hepatitis B virus; conditions: four genotype D patient-derived enzymes; compound at its IC50 (FIGS. 5A & 5B)
Procedure: RNaseH activity was measured using an oligonucleotide-directed RNA cleavage assay as previously described in Hu, et al., Tavis, et al., and Cai, et al. (2013; 2013; and 2014, respectfully). Briefly, 6 μL protein extract was mixed on ice with an internally ^32P-labeled 264 nt RNA derived from the Duck Hepatitis B Virus genome (DRF+ RNA) plus 3 μg oligonucleotide D2507- or its inverse-complement oligonucleotide D2526+ as a negative control. This mixture was incubated with test compounds in 50 mM Tris pH 8.0, 190 mM NaCl, 5 mM MgCl2, 3.5 mM DTT, 0.05% NP40, 6% glycerol, and 1% DMSO at 42° C. for 90 minutes. Cleavage products were resolved by denaturing polyacrylamide gel electrophoresis, detected by autoradiography, and quantified using ImageJ. Non-specific background values were determined from the incorrect oligonucleotide negative control lane and subtracted from all experimental values. IC50 values were then calculated with GraphPad Prism using three-parameter log(inhibitor) vs. response non-linear curve fitting with the curve minimum set to zero to reflect background subtraction.
HBV has 8 genotypes differing in sequence by 8%. Genetic diversity in the RNAseH domain is about 6%, which is easily high enough to modulate viral sensitivity to RNAseH inhibitors. […]

[2] = Mouse liver microsome assay; assay type: in vitro ADME; conditions: for ER: extraction ratio; for ER / Non-P450 turn-over / half-life at 1 μM: mouse liver microsomes; for half-life at 1 μM / CLint scaled at 1 μM: 1 μM compound; for half-life at 1 μM: read-out: t ½; for CLint scaled at 1 μM: mouse
Procedure: Microsomal incubations are run at a final P450 concentration of 0.25 μM. […] The mixture is prewarmed for 5 min at 37° C. To initiate the reaction a 12 mM stock of NAPDH (1.2 mM, final concentration) is added to the warmed microsomal mixture and aliquots are removed at 0, 5, 10, 20 and 30 min. […] Samples are vortexed and spun down at 3200 rpm for 5 min. The supernant is transferred to 96-deep well plates and run on LC/MS/MS.

[3] = MTT cytotoxicity assay in HepDES19 cells; assay type: cell-based; conditions: human
Procedure: 1.0×10^4 HepDES19 cells per well were seeded in 96-well plates and incubated in DMEM with 10% FBS plus 1% P/S, 1% non-essential amino acids, and 1% glutamine. Compounds were diluted in medium to the indicated concentrations plus 1% DMSO and added to cells 24 hours after plating, with each concentration tested in triplicate. Medium containing the compound was refreshed daily for the next two days. Thiazolyl blue tetrazolium bromide (MTT, Sigma-Aldrich) was added to 0.25 mg/mL, the cultures were incubated for 60 minutes, metabolites were solubilized in acidic isopropanol, and absorbance was read at 570 nm.

HSV-1 = assay: Anti-HSV-1 replication assay (virus yield by plaque assay on Vero cells); assay type: cell-based, herpes simplex virus 1 (HSV-1); conditions: for HSV-1 Log10 suppression 5 μM / HSV-1 Log10 suppression 50 μM: Vero cells, moi 0.1, 24 h, relative to DMSO control
Procedure: (§1) Vero cells were maintained in Dulbecco's modified Eagle's medium (DMEM) containing 3% newborn calf serum, 3% bovine growth serum, 2 mM L-glutamine and 100 IU/mL penicillin and 0.1 mg/mL streptomycin (P/S). HSV-1 #6 and HSV-2 #1 are de-identified clinical isolates from the Saint Louis University Hospital. Stocks were prepared after a single passage in cell culture and were titered by standard plaque assay (Knipe and Spang, 1982). Wild-type HSV-2 used in FIG. 3 was laboratory strain 333. […] Virus stocks were grown and titered on Vero cells (Morrison and Knipe, 1996).
(§2) Compounds to be screened were diluted in PBS supplemented to contain 2% newborn calf serum and 1% glutamine, and added in 100 μL volume to confluent cell monolayers in 24-well cluster plates. Immediately thereafter HSV-1 and HSV-2, diluted in the supplemented PBS medium, were added to the wells in 50 μl volume such that the final concentration of compound was 50 μM, 5 μM and 1 μM and the multiplicity of infection was 0.1. The plates were incubated at 37° C. for 1 hour and then virus-containing inoculum was removed and the wells were washed once in PBS. Compound, diluted to 50 μM, 5 μM and 1 μM in DMEM supplemented to contain 2% newborn calf serum and 1% each penicillin/streptomycin, was added at 0.5 mL/well. Plates were incubated at 37° C. an additional 23 hours, and then the plates were visually inspected through a phase contrast microscope for cytopathic effect, and for toxic effect. The entire contents of each well were collected by scraping. Samples were frozen at −80° C., and then subsequently thawed, sonicated, and infectious virus titer was determined by standard plaque assay on Vero cell monolayers. Because the compounds were dissolved at 10 mM in 100% DMSO, equivalent dilutions of DMSO were added to additional wells as a control for effects of the diluent. Each experiment was repeated once. EC50 values were determined as above except that serial dilutions of the compound to be tested were prepared starting at 50 μM. The inhibitory values were calculated by non-linear curve-fitting in GraphPad Prism.

HSV-2 = assay: Anti-HSV-2 replication assay (virus yield by plaque assay on Vero cells); assay type: cell-based, herpes simplex virus 2 (HSV-2); conditions: for HSV-2 Log10 suppression 5 μM / HSV-2 Log10 suppression 50 μM: Vero cells, moi 0.1, 24 h, relative to DMSO control
Procedure: as §1, §2

HBV [4] = assay: HBV replication assay in HepDES19 cells; assay type: cell-based, hepatitis B virus; parameters: key to Qualitative HBV replication inhibition assay: **: + DNA suppression <25% and − DNA suppression >60%; *: + DNA suppression <50% of − DNA suppression; conditions: for EC50: Hepatitis B virus, HBV replication, HepDES19 cells; for Qualitative HBV replication inhibition assay: plus- vs minus-polarity DNA strand suppression
Procedure: Inhibition of HBV replication was measured in HepDES19 cells as previously described in Cai, et al. (2014). Cells were seeded into 6-well plates and incubated in DMEM/F12, 10% fetal bovine serum (FBS), 1% penicillin/streptomycin (P/S) with 1 μg/mL tetracycline. Tetracycline was withdrawn after 24 hours. The test compound was applied to duplicate wells 48 hours later in medium containing a final DMSO concentration of 1%, and medium containing the compound was refreshed daily for the following two days. Cells were harvested and non-encapsidated nucleic acids were digested with micrococcal nuclease (New England Biolabs). HBV DNA was purified from capsids using QIAamp Cador Pathogen Mini Kit (Qiagen) with proteinase K incubation overnight at 37° C. TaqMan PCR was performed for 40 cycles at an annealing temperature of 60° C. Primers and probe (IDT Inc.) for the plus-polarity strand were: 5′[…]3′ (SEQ ID NO: 1); 5′[…]3′ (SEQ ID NO: 2); 5′/56-FAM/[…]/ZEN/[…]/3IABkFQ (SEQ ID NO: 3). Primers and probe for the minus-polarity strand were: 5′[…]3′ (SEQ ID NO: 4; 5′[…]3′ (SEQ ID NO: 5); 5′/56-FAM/[…]/ZEN/[…]/3IABkFQ (SEQ ID NO: 6).

in vitro = assay type: cell-based; conditions: African green monkey
Procedure: Qualitative assessments of cytotoxicity were done visually by inspecting the cells in the primary screening assays. For the quantitative assays, cells were plated in 96-well plates at 1.0×10^4 per well. The next day the compounds were added at 0.78 to 100 μM in a final concentration of 1% (v/v) DMSO, and the cells were incubated for 24 hours under conditions identical to those employed for the viral replication inhibition assays. Mitochondrial toxicity was measured by incubating the cells with 0.25 mg/mL thiazolyl blue tetrazolium bromide (MTT, SigmaAldrich Chemical Co.), the cultures were incubated for 60 min, metabolites were solubilized in acidic isopropanol, and absorbance was read at 570 nm. CC50 values were calculated by non-linear curve fitting using GraphPad Prism.
A quantitative toxicity measurement was conducted. Toxicity was assessed by measuring release of intracellular proteases into the culture medium due to cellular lysis. Cells were plated in 96-well plates at 1.0×10^4 per well. The next day compound was added in concentrations ranging from 0.78 to 100 μM in a final concentration of 1% (v/v) DMSO. The cells were incubated for 24 hours under conditions identical to those employed for the viral replication inhibition assays, and then […] according to the manufacturer's instructions. […]

[5] = test system: TK-deficient mutant of HSV-2 strain 333, ΔTK-; assay: Replication of TK-deficient HSV-2 mutant in Vero cells; assay type: cell-based, herpes simplex virus 2 (HSV-2); conditions: 5 μM, 24 h (FIG. 3)
Procedure: Vero cells were maintained in Dulbecco's modified Eagle's medium (DMEM) containing 3% newborn calf serum, 3% bovine growth serum, 2 mM L-glutamine and 100 IU/mL penicillin and 0.1 mg/mL streptomycin (P/S). HSV-1 #6 and HSV-2 #1 are de-identified clinical isolates from the Saint Louis University Hospital. Stocks were prepared after a single passage in cell culture and were titered by standard plaque assay (Knipe and Spang, 1982). Wild-type HSV-2 used in FIG. 3 was laboratory strain 333. The TK-deficient mutant of HSV-2 strain 333, ΔTK-, contains a 180-bp KpnI-KpnI deletion in the UL23 open reading frame that abrogates TK activity (McDermott, et al, 1984). ΔTK—was the generous gift of Jim Smiley. Virus stocks were grown and titered on Vero cells (Morrison and Knipe, 1996).
ACV is a nucleoside analog prodrug that must be phosphorylated by the viral thymidine kinase (TK) for it to become a substrate for the viral DNA polymerase (Elion, et al., 1977). HSV TK-deficient mutants are therefore insensitive to ACV. […] Vero cells were infected with a laboratory strain of HSV-2 and an engineered TK-deficient mutant of the same strain. […] ACV 5 μM inhibited wild-type HSV-2 replication 100-fold, but it had little effect on the TK-mutant (FIG. 3).

SMILES | CC50 at 3 days [3] | EC50 (HBV [4]) | Qualitative HBV replication inhibition assay (HBV [4]) | HSV-1 Log10 suppression 5 μM (HSV-1) | HSV-1 Log10 suppression 50 μM (HSV-1) | HSV-2 Log10 suppression 5 μM (HSV-2) | HSV-2 Log10 suppression 50 μM (HSV-2) | other results
O=C1Cc2ccccc2C(=O)N1O [#1, 2-hydroxyisoquinoline-1,3(2H,4H)-dione] | – | – | – | – | – | – | – | weighted combination index (CI) (HBV [1]): 0.70±0.1; inhibition of HBV RNAseH (HBV RNAseH): about 50%
Cc1cc(C2CCCCC2)n(O)c(=O)c1 [#41] | – | – | – | – | – | – | – | ER [2]: 0.16; Non-P450 turn-over [2]: No; half-life at 1 μM [2]: > 2 h; CLint scaled at 1 μM ([2]; microsomes, read-out: CL ‘hep): 14 mL/min/kg; CLint scaled at 1 μM ([2]; microsomes, read-out: CL’int): 17 mL/min/kg
CC(C)=CCc1ccc(=O)c(O)cc1C(C)C [#49] | 9 µM | – | – | – | – | – | – | –
O=c1cc(NCc2ccccc2)c2cccnc2n1O [#151] | 15 µM | 4.7 µM | ** | – | – | – | – | suppression of HSV-1 replication in cell culture (HSV-1; 5 μM or less): strongly suppressed; suppression of HSV-2 replication in cell culture (HSV-2; 5 μM or less): strongly suppressed
C/C(=N\c1ccccc1N)c1c(C)cc(=O)n(O)c1O [#208] | 15 µM | 0.69 µM | ** | 0.15 log10 | 2.63 log10 | 0.11 log10 | 0.26 log10 | ER [2]: <0.1; Non-P450 turn-over [2]: No; half-life at 1 μM [2]: > 2 h; CLint scaled at 1 μM ([2]; liver microsomes, read-out: CL ‘hep): 163 mL/min/kg
Cc1ccc(O)c(=O)c(O)c1 [#210] | 71 µM | 1.5 µM | ** | – | – | – | – | –
Cc1cc(COc2ccc(Oc3ccc(Cl)cc3)cc2)n(O)c(=O)c1 [#211] | 30 µM | 13 µM | ** | 0.08 log10 | 1.6 log10 | 0.04 log10 | 1.81 log10 | –
Nc1nc2c(ncn2COCCO)c(=O)[nH]1 [Acyclovir, acyclovir, reference compound] | – | – | – | 3.61 log10 | 5.39 log10 | 3.91 log10 | 5.25 log10 | HSV-1 Log10 suppression 5 μM (HSV-1; listed as acyclovir): 4.22 log10; HSV-2 Log10 suppression 5 μM (HSV-2; listed as acyclovir): 3.6 log10; CC50 at 24 h (in vitro): > 100 µM; inhibition of TK-mutant HSV-2 [5]: little effect
NCc1cccc(-c2ccc(Cc3cc(=O)n(O)c4ncccc34)cc2)c1 [Compound 153] | 10 µM | 4.1 µM | ** | – | – | – | – | –
